Assay [1] deals with T1, N-acylethanolamine-hydrolyzing acid amidase (Homo sapiens) (UniProt Q02083).
T1 sequence (whole entry): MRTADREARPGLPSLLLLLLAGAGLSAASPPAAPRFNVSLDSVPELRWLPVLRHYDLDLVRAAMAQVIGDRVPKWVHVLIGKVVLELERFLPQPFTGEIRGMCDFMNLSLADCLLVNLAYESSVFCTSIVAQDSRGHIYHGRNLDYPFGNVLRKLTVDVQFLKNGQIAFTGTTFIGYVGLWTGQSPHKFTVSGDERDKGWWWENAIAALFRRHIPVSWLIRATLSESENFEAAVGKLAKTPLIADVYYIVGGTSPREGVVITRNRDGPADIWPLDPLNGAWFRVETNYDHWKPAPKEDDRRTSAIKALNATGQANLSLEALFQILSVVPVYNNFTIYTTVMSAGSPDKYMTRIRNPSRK
The experiment in a line: Inhibition of recombinant human NAAA expressed in HEK293 cells at 50 uM using [14C]-N-palmitoylethanolamine as substrate measured after 30 mins by beta-counting method relative to control. It is filed as cell-based.

Assay [2] has as its system RBL-2H3. The experiment in a line: Inhibition of [14C]-AEA uptake in rat RBL2H3 cells by scintillation counting method. It is filed as functional, cell-based.
In assay [3] the target is T2, Fatty-acid amide hydrolase 1 (Rattus norvegicus) (UniProt P97612).
T2 sequence (whole entry): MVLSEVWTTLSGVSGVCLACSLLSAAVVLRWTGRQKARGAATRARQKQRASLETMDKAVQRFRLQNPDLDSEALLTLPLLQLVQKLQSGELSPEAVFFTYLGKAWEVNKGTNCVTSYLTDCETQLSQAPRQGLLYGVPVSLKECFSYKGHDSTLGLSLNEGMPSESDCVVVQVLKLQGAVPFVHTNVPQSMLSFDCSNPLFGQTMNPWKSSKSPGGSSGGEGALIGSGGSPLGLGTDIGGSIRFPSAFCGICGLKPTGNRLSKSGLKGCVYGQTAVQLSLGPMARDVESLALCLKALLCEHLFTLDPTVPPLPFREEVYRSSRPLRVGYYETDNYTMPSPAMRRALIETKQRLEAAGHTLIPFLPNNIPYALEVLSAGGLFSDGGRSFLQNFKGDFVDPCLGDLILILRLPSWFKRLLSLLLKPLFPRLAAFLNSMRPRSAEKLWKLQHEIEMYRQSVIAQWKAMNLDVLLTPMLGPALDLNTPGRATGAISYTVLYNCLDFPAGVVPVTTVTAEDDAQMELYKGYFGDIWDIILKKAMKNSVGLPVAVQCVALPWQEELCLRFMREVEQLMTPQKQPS
Kind of assay: Inhibition of FAAH in rat brain membranes at 100 uM using [14C]-AEA as substrate measured after 30 mins by scintillation counting method relative to control. It counts as cell membranes.

Assay [4] deals with T3, Diacylglycerol lipase-alpha (Homo sapiens) (UniProt Q9Y4D2).
T3 sequence (whole entry): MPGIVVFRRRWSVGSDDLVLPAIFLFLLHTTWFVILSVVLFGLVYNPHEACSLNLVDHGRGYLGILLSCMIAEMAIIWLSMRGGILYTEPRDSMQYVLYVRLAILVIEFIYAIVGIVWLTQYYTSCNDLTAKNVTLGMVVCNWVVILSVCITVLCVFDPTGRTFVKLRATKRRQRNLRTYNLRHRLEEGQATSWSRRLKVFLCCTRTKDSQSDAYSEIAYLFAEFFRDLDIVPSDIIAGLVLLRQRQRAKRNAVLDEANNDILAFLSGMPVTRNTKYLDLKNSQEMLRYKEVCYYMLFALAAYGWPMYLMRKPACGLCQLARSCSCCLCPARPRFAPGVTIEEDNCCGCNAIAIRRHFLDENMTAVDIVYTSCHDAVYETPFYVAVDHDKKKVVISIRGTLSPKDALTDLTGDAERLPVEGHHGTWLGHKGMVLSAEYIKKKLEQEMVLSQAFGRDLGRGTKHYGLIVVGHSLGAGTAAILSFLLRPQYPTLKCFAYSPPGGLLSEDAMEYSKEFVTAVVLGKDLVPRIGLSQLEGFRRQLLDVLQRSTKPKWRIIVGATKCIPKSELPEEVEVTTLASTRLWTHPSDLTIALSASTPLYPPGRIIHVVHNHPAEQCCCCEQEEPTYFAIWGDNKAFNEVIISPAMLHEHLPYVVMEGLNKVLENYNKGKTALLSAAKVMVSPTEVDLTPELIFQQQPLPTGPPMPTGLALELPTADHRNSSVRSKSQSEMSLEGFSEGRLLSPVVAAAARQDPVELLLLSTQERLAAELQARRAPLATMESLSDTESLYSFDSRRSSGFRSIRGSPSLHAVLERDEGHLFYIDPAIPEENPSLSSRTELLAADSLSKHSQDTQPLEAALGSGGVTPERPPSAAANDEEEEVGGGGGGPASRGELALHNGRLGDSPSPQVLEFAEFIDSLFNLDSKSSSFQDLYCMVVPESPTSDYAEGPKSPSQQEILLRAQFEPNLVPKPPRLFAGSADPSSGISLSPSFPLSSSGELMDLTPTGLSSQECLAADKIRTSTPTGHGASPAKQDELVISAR
Kind of assay: Inhibition of recombinant human DAGLalpha expressed in COS7 cells at 100 uM using [14C]-oleoyl-2-arachidonoyl-glycerol as substrate measured after 20 mins by beta-counting method relative to control. It is filed as cell-based.

Assay [5] addresses T4, Diacylglycerol lipase-alpha (Homo sapiens, UniProt Q9Y4D2).
T4 sequence (Q9Y4D2 whole entry): T3 sequence (whole entry)
The experiment in a line: Inhibition of recombinant human DAGLalpha expressed in COS7 cells using [14C]-oleoyl-2-arachidonoyl-glycerol as substrate measured after 20 mins by beta-counting method. It counts as cell-based.

Assay [6] is described as follows: Inhibition of MAGL in African green monkey COS cell homogenates using [3H]-arachidonoylglycerol as substrate measured after 20 mins by scintillation counting method. It counts as tissue-based, Chlorocebus aethiops.
The target of assay [7] is T5, Fatty-acid amide hydrolase 1 (Rattus norvegicus, UniProt P97612).
T5 sequence (P97612 whole entry): T2 sequence (whole entry)
The experiment in a line: Inhibition of FAAH in rat brain membranes using [14C]-AEA as substrate measured after 30 mins by scintillation counting method. It counts as cell membranes.

Assay [8] deals with T6, N-acylethanolamine-hydrolyzing acid amidase (Homo sapiens, UniProt Q02083).
T6 sequence (Q02083 whole entry): T1 sequence (whole entry)
Kind of assay: Inhibition of recombinant human NAAA expressed in HEK293 cells using [14C]-N-palmitoylethanolamine as substrate measured after 30 mins by beta-counting method. It is filed as cell-based.

The target in assay [9] is T7, Cannabinoid receptor 1 (Homo sapiens, UniProt P21554). The experiment in a line: Displacement of [3H]-CP55940 from recombinant human CB1 receptor expressed in Sf9 cell membranes co-expressing Galphai3beta1gamma2 measured after 90 mins by scintillation counting method.
The species named for a further assay is Chlorocebus aethiops. The experiment in a line: Inhibition of MAGL in African green monkey COS cell homogenates at 100 uM using [3H]-arachidonoylglycerol as substrate measured after 20 mins by scintillation counting method relative to control. It is filed as tissue-based.
In assay [10] the test system is RBL-2H3. The experiment in a line: Inhibition of [14C]-AEA uptake in rat RBL2H3 cells at 25 uM by scintillation counting method relative to control. It counts as functional.
The target of assay [11] is T8, Cannabinoid receptor 2 (Homo sapiens, UniProt P34972). The experiment in a line: Displacement of [3H]-CP55940 from recombinant human CB2 receptor expressed in HEK293 cell membranes measured after 90 mins.
Assay [12] has as its target T8, Cannabinoid receptor 2. The experiment in a line: Displacement of [3H]-CP55940 from recombinant CB2 receptor (unknown origin) expressed in cell membranes after 90 mins by scintillation counting method.
Assay [13] has as its target Cannabinoid receptor 1 (Rattus norvegicus, UniProt P20272). The experiment in a line: Displacement of [3H]-CP55940 from CB1 receptor in rat […] membranes after 60 mins by scintillation counting method. It is filed as cell membranes. In general terms: Loss of bound radioactivity is the signal in a displacement assay; it reports binding, not function.
The target in assay [14] is Cannabinoid receptor 2 (Mus musculus, UniProt P47936). Kind of assay: Displacement of [3H]-CP55940 from CB2 receptor in mouse spleen membranes after 60 mins by scintillation counting method. It counts as cell membranes.
For assay [15], the target named is T8, Cannabinoid receptor 2. Kind of assay: Displacement of [3H]-CP55940 from CB2 receptor (unknown origin).
The target in assay [16] is T8, Cannabinoid receptor 2. Kind of assay: Displacement of [3H]-CP55940 from recombinant human CB2 receptor expressed in Sf9 cell membranes co-expressing Galphai3beta1gamma2 measured after 90 mins by scintillation counting method.
Assay [17] deals with T2, Fatty-acid amide hydrolase 1 (Rattus norvegicus). Kind of assay: Inhibition of FAAH in rat brain membranes at 50 uM using [14C]-AEA as substrate measured after 30 mins by scintillation counting method relative to control. It counts as cell membranes.
For assay [18], the target named is T1, N-acylethanolamine-hydrolyzing acid amidase (Homo sapiens). Kind of assay: Inhibition of recombinant human NAAA expressed in HEK293 cells at 100 uM using [14C]-N-palmitoylethanolamine as substrate measured after 30 mins by beta-counting method relative to control. It is filed as cell-based.
Assay [19] concerns the target T8, Cannabinoid receptor 2. The experiment in a line: Displacement of [3H]-CP55940 from recombinant human CB2 receptor expressed in HEK293 cell membranes after 90 mins by scintillation counting method.
The target in assay [20] is T7, Cannabinoid receptor 1. Kind of assay: Displacement of [3H]-CP55940 from recombinant human CB1 receptor expressed in HEK293-EBNA cell membranes after 90 mins by scintillation counting method.
In assay [21] the target is T7, Cannabinoid receptor 1. The experiment in a line: Displacement of [3H]-CP55940 from CB1 receptor (unknown origin).

Cannabinoid receptor 1 (Rattus norvegicus, UniProt P20272), sequence (P20272 whole entry): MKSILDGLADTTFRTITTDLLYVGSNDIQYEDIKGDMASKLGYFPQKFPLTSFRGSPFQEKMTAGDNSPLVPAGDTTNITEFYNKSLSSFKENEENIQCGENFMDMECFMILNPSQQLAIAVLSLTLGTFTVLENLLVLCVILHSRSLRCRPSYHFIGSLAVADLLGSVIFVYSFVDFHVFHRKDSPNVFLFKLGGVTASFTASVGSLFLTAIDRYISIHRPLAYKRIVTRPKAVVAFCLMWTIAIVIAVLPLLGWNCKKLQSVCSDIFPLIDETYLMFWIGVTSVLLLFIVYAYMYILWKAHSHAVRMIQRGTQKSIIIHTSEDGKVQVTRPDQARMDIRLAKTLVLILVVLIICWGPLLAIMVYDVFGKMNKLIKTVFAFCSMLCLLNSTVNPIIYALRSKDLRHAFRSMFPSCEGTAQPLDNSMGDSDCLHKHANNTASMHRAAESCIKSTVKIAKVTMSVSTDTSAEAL
Cannabinoid receptor 2 (Mus musculus, UniProt P47936), sequence (P47936 whole entry): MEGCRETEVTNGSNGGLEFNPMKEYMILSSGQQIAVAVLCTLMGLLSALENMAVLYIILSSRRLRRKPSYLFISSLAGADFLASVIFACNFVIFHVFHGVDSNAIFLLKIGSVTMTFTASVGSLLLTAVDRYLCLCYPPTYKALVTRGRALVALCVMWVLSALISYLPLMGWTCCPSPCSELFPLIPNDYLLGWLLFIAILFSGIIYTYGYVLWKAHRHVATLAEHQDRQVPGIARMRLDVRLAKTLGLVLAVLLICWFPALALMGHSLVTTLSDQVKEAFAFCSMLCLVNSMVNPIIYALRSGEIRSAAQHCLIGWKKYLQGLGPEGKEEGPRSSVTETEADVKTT
T8 sequence (P34972 whole entry): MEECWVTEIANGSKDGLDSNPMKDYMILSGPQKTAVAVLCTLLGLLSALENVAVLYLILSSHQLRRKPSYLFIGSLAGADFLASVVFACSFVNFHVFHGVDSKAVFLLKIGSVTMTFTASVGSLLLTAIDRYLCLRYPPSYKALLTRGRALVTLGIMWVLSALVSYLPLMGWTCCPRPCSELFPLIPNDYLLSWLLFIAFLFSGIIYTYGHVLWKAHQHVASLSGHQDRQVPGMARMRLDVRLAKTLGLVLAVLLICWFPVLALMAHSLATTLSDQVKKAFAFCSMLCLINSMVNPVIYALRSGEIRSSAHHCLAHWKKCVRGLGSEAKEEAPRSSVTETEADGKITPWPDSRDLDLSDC
T7 sequence (P21554 whole entry): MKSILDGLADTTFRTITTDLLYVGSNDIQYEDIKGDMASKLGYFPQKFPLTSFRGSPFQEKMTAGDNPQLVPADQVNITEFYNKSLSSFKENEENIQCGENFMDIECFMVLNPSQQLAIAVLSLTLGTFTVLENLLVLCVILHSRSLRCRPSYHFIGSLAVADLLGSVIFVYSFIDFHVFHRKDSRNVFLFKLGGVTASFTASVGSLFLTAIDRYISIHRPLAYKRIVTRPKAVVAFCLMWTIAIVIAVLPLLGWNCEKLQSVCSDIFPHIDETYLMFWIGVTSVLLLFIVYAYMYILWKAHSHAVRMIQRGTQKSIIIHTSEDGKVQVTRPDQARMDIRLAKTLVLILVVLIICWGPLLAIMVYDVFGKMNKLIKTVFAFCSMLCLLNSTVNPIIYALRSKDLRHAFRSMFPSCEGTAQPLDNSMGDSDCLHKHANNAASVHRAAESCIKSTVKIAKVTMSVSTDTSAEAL

What is called Emax is the greatest response seen or fitted, relative to the assay's reference. By IC50 is commonly meant the concentration that gives 50% inhibition. One may read the Ki as a measure of affinity in units of concentration, obtained from inhibition or displacement. As to `CCCCCc1cc(O)c(C/C=C(\C)CCC=C(C)C)c(O)c1` [CANNABIGEROL], the maximum response (Emax) was found to be 19.4% in assay [1], 44.9% in assay [3], 44.8% in assay [4] and 54.2% in the assay filed under Chlorocebus aethiops. For the same compound, the IC50 with RBL-2H3 [2] was 11.3 µM; in assay [5] it was > 100 µM; in [6] it was 95.7 µM; in assay [7], > 100 µM; in [8], > 100 µM. Also, the inhibition constant (Ki) on Cannabinoid receptor 1 [9] came out at 0.897 µM. In addition, the Emax at 25 µM in the assay on RBL-2H3 [10] turned out to be 85.4%.
As to `CC(C)=CCC/C(C)=C/Cc1c(O)cc(CCc2ccccc2)c(C(=O)O)c1O`, the Ki on Cannabinoid receptor 2 [11] was 0.828 µM.
`C/C=C\C=C\CC/C=C/C=C/C(=O)NCC(C)C`: the Ki at Cannabinoid receptor 2 [12] came out at 4.53 µM.
With `CCC/C=C\CC/C=C/C=C/C(=O)NCC(C)C`, the Ki at Cannabinoid receptor 1 [13] turned out to be 11 µM; on Cannabinoid receptor 2 [14], 8.38 µM.
On to `O=C(O[C@@H]1Cc2c(O)cc(O)cc2O[C@@H]1c1cc(O)c(O)c(O)c1)c1cc(O)c(O)c(O)c1` [EPIGALOCATECHIN GALLATE], for which the inhibition constant Ki at Cannabinoid receptor 2 [15] amounted to 42.8 µM.
For `CCCCCc1cc(O)c2c(c1)OC(C)(CCC=C(C)C)C=C2` (stereo unspecified) [CANNABICHROMENE], the maximum response (Emax) turned out to be 40.6% in [1], 46.5% in [3], 39.5% in assay [4] and 64.5% in the assay filed under Chlorocebus aethiops. For the same compound, the IC50 in the assay with RBL-2H3 [2] was 12.3 µM; in assay [5], > 100 µM; in assay [6], 50.1 µM; in assay [7] it was > 100 µM; in assay [8] it was > 100 µM. The Ki at Cannabinoid receptor 2 [16] was determined as 0.257 µM; at Cannabinoid receptor 1 [9], 0.714 µM. Moreover, the maximal response (Emax) at 25 µM in the assay with RBL-2H3 [10] was 83.2%.
As for `CCCCCc1cc(O)c(C/C=C(\C)CCC=C(C)C)c(O)c1C(=O)O` [CANNABIGEROLIC ACID], the maximal response (Emax) was 46.2% in assay [17], 33.2% in assay [18], 67.6% in [4] and 17.2% in the assay filed under Chlorocebus aethiops. Besides, the IC50 in the assay with RBL-2H3 [2] was > 25 µM; in [5], 30.5 µM; in assay [6], > 50 µM; in assay [7] it was > 50 µM; in assay [8], > 50 µM. The Emax at 25 µM in the assay with RBL-2H3 [10] turned out to be 43.6%.
For the compound `CC#CC#CCCCC/C=C/C(=O)NCC(C)CC` (stereo unspecified), the inhibition constant Ki at Cannabinoid receptor 1 [13] was 6.73 µM; on Cannabinoid receptor 2 [14], 7.2 µM.
Turning to `C/C=C/C=C\CC/C=C/C=C/C(=O)NCC(C)C`, the inhibition constant (Ki) at Cannabinoid receptor 2 [12] worked out at 9.04 µM.
Take `C/C=C\C=C/CC/C=C/C=C/C(=O)NCC(C)C`: the inhibition constant (Ki) at Cannabinoid receptor 2 [19] came out at 0.057 µM; at Cannabinoid receptor 1 [20], 6.21 µM.
For the compound `CC#CC#CCCCC/C=C/C=C/C(=O)NCC(C)C`, the Ki on Cannabinoid receptor 1 [13] stood at 24.6 µM; at Cannabinoid receptor 2 [14], 1.87 µM.
For the compound `O=C(O[C@@H]1Cc2c(O)cc(O)cc2O[C@@H]1c1ccc(O)c(O)c1)c1cc(O)c(O)c(O)c1` [EPICATECHIN GALLATE], the Ki was 95.6 µM at Cannabinoid receptor 2 [15] and 47.3 µM at Cannabinoid receptor 1 [21].
Take `Oc1cc(O)c2c(c1)O[C@H](c1cc(O)c(O)c(O)c1)[C@H](O)C2` [EPIGALLOCATECHIN]: the results for the Ki on Cannabinoid receptor 2 [15] and at Cannabinoid receptor 1 [21] were 361 µM and 35.7 µM, respectively.
Regarding `C#CC#CCCCC/C=C/C(=O)NCC(C)C`, the Ki at Cannabinoid receptor 2 [19] and at Cannabinoid receptor 1 [20] was > 40 µM throughout.

The values above are taken from ChEMBL document CHEMBL4422692, “Plant-Based Modulators of Endocannabinoid Signaling” (J Nat Prod, 2019).
